Reference: publication PMC10343299, “S-Ethyl-Isothiocitrullin-Based Dipeptides and 1,2,4-Oxadiazole Pseudo-Dipeptides: Solid Phase Synthesis and Evaluation as NO Synthase Inhibitors” (Molecules, 2023)

Legend:
bovine eNOS = biological target: T1, bovine eNOS (Bos taurus, UniProt P29473); test: NOS inhibition, oxyhemoglobin (hemoglobin capture) test, recombinant eNOS; format: biochemical; settings: dipeptide-like series; recombinant enzyme, 10 µM arginine, triplicate; NI = <50% inhibition at 100 μM; read-out: IC50 (μM) eNOS (Bovine)
T1 construct: Full-length recombinant rat nNOS, mouse iNOS, bovine eNOS; made in house; host or cells: Escherichia coli

[1] = biological target: T2, oxygenase domain of nNOS (nNOSoxy) (Rattus norvegicus, UniProt P29476); test: UV-visible difference spectroscopy titration of nNOSoxy; format: binding; settings: UV/Vis difference spectroscopy, ± SD, three experiments; read-out: Apparent equilibrium constant Ks nNOSoxy
T2 construct: the oxygenase domain of nNOS (nNOSoxy) and iNOS (iNOSoxy); made in house; host or cells: Escherichia coli
Description: (§1) We performed UV–visible difference spectroscopy to analyze the interaction mode of some inhibitors with the heme-active site of NOS [54]. We have studied the effects of dipeptide-like compounds 7, 17, 19, 23, and 27 and 1,2,4-oxadiazole 35 on the UV–visible spectra of the oxygenase domain of nNOS (nNOSoxy) and iNOS (iNOSoxy). As expected, when added stepwise to n- and iNOSoxy, all selected compounds elicited different spectra with a trough at ~425 nm and a peak at ~395 nm, similar to the substrate L-arginine. This profile is characteristic of type I interactions, meaning that they are bound in close proximity to the heme prosthetic group and shifted the spin state equilibrium to the pentacoordinated heme–Fe^III state. Double reverse plotting of the differences in absorbance between the peak at ~395 nm and valley at ~425 nm (ΔA395–425 nm) as a function of the concentration of the added compounds allowed calculating apparent binding constants (Ks) (Table 3). The reference inhibitor SEITU [55] tightly bound both NOS isoforms with high affinity but no selectivity. With the exception of the dipeptide-like 27 and the heterocyclic analog 35, which similarly interacted with both proteins, other compounds preferentially bound nNOSoxy over iNOSoxy with apparent affinities close to SEITU for this isoform.
(§2) Full-length recombinant rat nNOS, mouse iNOS, bovine eNOS, and the heme domains of rat brain nNOS and mouse iNOS were expressed in Escherichia coli and purified as described previously.
(§3) This study was performed as previously described.

rat nNOS = biological target: T3, rat nNOS (Rattus norvegicus, UniProt P29476); test: NOS inhibition, oxyhemoglobin (hemoglobin capture) test, recombinant nNOS; format: biochemical; settings: dipeptide-like series; recombinant enzyme, 10 µM arginine, triplicate; NI = <50% inhibition at 100 μM
T3 construct: Full-length recombinant rat nNOS, mouse iNOS, bovine eNOS; made in house; host or cells: Escherichia coli
In short: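 Full-length E. coli-expressed recombinant enzyme; NO formation followed kinetically at 401 nm via oxyhemoglobin capture at 30 °C in 100 mM Hepes pH 7.5 with NADPH, BH4, FAD, FMN, DTT; arginine 20 µM (iNOS) or 10 µM (nNOS, plus calmodulin and CaCl2). Screened at 100 and 10 μM; IC50 if >50% inhibition at 100 μM.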

[2] = biological target: T4, oxygenase domain of iNOS (iNOSoxy) (Mus musculus, UniProt P29477); test: UV-visible difference spectroscopy titration of iNOSoxy; format: binding; settings: UV/Vis difference spectroscopy, ± SD, three experiments; read-out: Apparent equilibrium constant Ks iNOSoxy
T4 construct: the oxygenase domain of nNOS (nNOSoxy) and iNOS (iNOSoxy); made in house; host or cells: Escherichia coli
T4 sequence (P29477 1-498 limits assumed): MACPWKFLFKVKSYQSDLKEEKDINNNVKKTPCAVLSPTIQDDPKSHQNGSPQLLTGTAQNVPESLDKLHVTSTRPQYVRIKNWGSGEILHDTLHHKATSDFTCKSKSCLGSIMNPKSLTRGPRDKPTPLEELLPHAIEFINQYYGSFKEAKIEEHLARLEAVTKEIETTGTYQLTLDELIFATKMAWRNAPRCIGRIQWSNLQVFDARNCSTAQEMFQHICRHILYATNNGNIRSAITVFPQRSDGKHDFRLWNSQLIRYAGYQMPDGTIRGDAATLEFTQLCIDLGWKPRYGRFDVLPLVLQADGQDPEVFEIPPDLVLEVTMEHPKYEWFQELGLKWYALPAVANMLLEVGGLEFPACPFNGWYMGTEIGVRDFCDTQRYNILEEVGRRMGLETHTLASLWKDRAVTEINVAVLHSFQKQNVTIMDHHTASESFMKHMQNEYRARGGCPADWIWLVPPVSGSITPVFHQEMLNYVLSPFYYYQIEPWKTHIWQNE
Description: as §1, §2, §3

INS-1 cells (nNOS) = test: Glucose-induced insulin secretion; format: cell-based; settings: 5.6 mM glucose, no IL-1β, 1 h, compounds 500 µM to 5 mM, L-NAME 5 mM
Experimental: Indeed, pancreatic β-cells are known to constitutively express the nNOS isoform, which negatively modulates glucose-induced insulin secretion.
The insulin-secreting cell line INS-1 (a gift from Prof. C. Wolheim, Geneva, Switzerland) was cultured in RPMI-1640 supplemented with 10% FCS, 100 units/mL penicillin, 100 µg/mL streptomycin, 2 mM L-glutamine, 10 mM HEPES, 1 mM sodium pyruvate, and […] 2-mercaptoethanol, according to M. Asfari et al.’s method.
The functional effects of compounds were evaluated on INS-1 cells. Cells were preincubated for 1 h at 37 °C in a Krebs–Ringer bicarbonate buffer (108 mM NaCl, 1.19 mM KH2PO4, 4.74 mM KCl, 2.54 mM CaCl2, 1.19 mM MgSO4·7H2O, and 18 mM NaHCO3) containing 2 g/L BSA in the absence of glucose. After removal of the medium, the cells were stimulated for another hour at 37°C in the same buffer in the presence of 5.6 mM glucose and the presence of increasing concentrations of L-NAME or compounds (from 500 µM to 5 mM). At the end of the incubation period, the medium was collected, and the insulin was measured using an insulin high-range assay kit (CisBio, Codolet, France). Data are expressed as means ± SEM of the experiments (indicated in the result part).

T3 sequence (P29476 whole entry): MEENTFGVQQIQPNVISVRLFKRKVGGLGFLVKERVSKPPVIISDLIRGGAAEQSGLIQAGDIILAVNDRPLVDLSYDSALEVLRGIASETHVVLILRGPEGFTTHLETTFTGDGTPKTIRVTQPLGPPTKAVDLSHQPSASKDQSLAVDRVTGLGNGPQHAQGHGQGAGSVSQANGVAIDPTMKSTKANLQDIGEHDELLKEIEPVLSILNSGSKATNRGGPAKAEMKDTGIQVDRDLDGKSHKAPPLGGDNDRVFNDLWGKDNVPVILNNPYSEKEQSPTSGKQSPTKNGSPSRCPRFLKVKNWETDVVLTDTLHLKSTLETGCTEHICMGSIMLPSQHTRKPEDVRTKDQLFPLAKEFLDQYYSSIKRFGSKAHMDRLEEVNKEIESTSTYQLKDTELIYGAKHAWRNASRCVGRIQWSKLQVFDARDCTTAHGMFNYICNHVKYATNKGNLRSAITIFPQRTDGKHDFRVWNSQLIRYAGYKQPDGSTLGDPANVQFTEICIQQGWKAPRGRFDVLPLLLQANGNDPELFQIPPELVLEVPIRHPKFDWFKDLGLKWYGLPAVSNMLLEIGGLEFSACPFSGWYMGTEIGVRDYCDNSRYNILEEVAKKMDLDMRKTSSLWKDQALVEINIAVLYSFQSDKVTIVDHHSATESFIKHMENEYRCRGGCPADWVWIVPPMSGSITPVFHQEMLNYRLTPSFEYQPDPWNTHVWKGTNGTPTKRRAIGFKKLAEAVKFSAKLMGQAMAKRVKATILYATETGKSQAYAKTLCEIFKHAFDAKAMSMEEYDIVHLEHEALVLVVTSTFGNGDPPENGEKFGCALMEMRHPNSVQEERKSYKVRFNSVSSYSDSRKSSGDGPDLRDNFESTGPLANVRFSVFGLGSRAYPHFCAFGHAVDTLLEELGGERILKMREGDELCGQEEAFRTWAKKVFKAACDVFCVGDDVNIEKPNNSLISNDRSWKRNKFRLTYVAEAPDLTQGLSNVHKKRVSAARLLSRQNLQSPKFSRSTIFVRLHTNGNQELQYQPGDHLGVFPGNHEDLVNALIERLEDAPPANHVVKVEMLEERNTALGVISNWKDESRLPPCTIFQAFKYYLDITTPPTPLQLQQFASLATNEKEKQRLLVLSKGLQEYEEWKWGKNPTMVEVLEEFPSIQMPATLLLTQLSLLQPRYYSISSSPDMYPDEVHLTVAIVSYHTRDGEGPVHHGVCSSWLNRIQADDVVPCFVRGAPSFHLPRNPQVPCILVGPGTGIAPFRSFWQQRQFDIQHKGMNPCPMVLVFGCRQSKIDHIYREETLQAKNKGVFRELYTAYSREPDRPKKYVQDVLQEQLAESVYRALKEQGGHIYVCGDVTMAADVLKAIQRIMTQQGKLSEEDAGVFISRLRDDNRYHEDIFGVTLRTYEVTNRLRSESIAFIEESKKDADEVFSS
T2 sequence (P29476 1-720 limits assumed): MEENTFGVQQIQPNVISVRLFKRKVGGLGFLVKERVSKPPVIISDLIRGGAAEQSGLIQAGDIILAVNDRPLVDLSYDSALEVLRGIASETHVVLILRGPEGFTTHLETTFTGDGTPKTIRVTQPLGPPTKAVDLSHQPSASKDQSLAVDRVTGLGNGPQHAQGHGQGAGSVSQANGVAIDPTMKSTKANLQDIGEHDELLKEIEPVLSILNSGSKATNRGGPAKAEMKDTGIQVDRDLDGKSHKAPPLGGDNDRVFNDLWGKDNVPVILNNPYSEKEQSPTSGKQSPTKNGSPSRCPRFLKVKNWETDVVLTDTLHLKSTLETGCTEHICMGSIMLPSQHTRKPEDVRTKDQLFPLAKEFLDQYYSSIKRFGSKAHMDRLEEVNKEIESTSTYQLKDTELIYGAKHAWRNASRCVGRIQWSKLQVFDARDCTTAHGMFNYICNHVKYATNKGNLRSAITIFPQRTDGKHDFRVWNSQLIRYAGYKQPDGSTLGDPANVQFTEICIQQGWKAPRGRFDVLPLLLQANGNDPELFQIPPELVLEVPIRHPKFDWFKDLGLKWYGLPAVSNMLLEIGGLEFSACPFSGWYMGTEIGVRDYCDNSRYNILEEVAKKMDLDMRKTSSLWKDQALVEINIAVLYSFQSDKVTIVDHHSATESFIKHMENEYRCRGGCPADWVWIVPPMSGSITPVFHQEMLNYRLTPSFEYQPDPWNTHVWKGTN
T1 sequence (P29473 whole entry): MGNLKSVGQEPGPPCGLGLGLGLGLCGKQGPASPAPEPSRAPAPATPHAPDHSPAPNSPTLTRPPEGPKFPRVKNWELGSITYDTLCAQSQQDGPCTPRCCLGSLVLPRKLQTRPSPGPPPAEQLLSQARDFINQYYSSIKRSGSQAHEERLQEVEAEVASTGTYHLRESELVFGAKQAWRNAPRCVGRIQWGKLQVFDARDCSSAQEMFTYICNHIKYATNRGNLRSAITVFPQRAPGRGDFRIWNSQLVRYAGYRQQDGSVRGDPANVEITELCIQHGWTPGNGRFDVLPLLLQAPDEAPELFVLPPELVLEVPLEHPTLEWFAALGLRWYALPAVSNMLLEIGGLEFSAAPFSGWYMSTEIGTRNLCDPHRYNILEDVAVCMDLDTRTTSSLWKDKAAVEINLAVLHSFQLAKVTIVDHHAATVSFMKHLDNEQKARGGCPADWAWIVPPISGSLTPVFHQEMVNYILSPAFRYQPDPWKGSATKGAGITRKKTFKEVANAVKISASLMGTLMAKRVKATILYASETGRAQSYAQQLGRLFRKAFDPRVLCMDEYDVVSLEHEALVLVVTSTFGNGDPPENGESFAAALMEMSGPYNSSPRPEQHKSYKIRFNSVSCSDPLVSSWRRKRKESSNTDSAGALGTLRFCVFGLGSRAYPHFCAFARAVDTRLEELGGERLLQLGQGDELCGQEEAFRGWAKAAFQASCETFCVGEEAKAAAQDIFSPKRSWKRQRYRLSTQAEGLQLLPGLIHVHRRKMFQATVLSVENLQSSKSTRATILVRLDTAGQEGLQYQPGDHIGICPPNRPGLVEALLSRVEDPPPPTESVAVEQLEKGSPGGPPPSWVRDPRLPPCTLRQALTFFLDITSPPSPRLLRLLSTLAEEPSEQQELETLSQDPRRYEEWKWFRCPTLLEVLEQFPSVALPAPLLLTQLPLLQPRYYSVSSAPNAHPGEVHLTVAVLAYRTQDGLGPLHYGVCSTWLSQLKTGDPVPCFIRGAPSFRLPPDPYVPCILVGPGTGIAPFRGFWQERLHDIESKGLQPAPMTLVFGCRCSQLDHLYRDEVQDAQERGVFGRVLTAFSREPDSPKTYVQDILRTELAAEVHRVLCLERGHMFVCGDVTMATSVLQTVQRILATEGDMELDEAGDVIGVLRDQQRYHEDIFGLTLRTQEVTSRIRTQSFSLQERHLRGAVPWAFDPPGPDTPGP

Row | inhibition at 100 µM (bovine eNOS) | Kd [1] | IC50 (rat nNOS) | Kd [2] | Compound | Effect on insulin secretion (INS-1 cells (nNOS))
1 | < 50% | 7.1 ± 2.6 µM | 17.5 µM | 406 ± 97 µM | CCSC(=N)NCCC[C@H](N)C(=O)N[C@H]1CCCN(Cc2ccccc2)C1 [Compound 7] | dose-dependently stimulate glucose insulin secretion with better efficiency than L-NAME
2 | < 50% | 3.6 ± 1.5 µM | 5 µM | 36.4 ± 4.6 µM | CCSC(=N)NCCC[C@H](N)C(=O)N[C@H]1CCCN(Cc2ccc(Cl)c(C(F)(F)F)c2)C1 [Compound 17] | dose-dependently stimulate glucose insulin secretion with better efficiency than L-NAME
3 | < 50% | 70.6 ± 22.8 µM | 9.5 µM | 57.9 ± 8 µM | CCSC(=N)NCCC[C@H](N)C(=O)N[C@H]1CCCN(Cc2cccc(-c3cccc(C(=O)O)c3)c2)C1 [Compound 27] | dose-dependently stimulate glucose insulin secretion with better efficiency than L-NAME
